Results on two compounds are retold here after ChEMBL document CHEMBL1136318, “Synthesis and X-ray crystal structures of substituted fluorobenzene and benzoquinone inhibitors of the tissue factor VIIa complex” (Bioorg Med Chem Lett, 2003).

Assay [1] deals with Coagulation factor X (Homo sapiens, UniProt P00742). In words: Inhibitory activity against coagulation factor X.
Assay [2] concerns the target Prothrombin (Homo sapiens, UniProt P00734). In words: Inhibitory activity against thrombin.

A value given as a limit tells only on which side of the number the result lay.

Sequence of Coagulation factor X (P00742 41-179 limits assumed): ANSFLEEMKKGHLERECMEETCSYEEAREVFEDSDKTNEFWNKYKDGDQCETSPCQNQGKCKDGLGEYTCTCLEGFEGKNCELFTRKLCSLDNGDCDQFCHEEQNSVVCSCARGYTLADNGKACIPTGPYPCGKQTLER
Sequence of Coagulation factor X (P00742 235-488 limits assumed): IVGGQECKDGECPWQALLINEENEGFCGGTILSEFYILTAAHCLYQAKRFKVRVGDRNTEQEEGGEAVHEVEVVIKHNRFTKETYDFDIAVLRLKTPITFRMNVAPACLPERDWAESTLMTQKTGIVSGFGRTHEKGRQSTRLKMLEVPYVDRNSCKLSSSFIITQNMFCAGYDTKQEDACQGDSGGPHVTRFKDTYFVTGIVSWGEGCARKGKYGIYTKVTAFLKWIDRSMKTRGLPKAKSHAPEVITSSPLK

For the compound `CC(C)Nc1ccc(-c2cccc(N)c2)c(CC(=O)NCc2ccc(C(=N)N)cc2)c1F`, the IC50 in assay [1] is over 30 µM.

As for `CC(C)/N=C1\C=C(O)C(c2ccccc2)=C(CC(=O)NCc2ccc(C(=N)N)cc2)C1=O`, the 50% inhibitory concentration (IC50) in assay [2] is over 30 µM.
